Measured values from US20260250318A1, “COMPOSITIONS AND METHODS FOR CROSSING THE BLOOD BRAIN BARRIER” (VOYAGER THERAPEUTICS, INC., priority 2022, published 2026).

Experiments:
brain [1] = test: Maturation of TTM-002 capsid, NGS enrichment in brain of CD-1 Outbred mice; type: in vivo; settings: NGS fold-enrichment in the brain of CD-1 Outbred mice; intravenous, 1.0×10^12 VG/dose, 14 days; RNA; relative to non-matured TTM-002 control
Description: This Example describes maturation of the TTM-001 (SEQ ID NO: 981 (amino acid) and 983 (DNA), comprising SEQ ID NO: 941) and TTM-002 (SEQ ID NO: 982 (amino acid) and 984 (DNA), comprising SEQ ID NO: 2) capsid variants to further enhance their transduction and biodistribution in the central nervous system and evolve the AAV capsid variants to provide further cross-species compatibility. Two approaches were used to mature the TTM-001 and TTM-002 capsid sequences in order to randomize and mutate within and around the peptide insert comprised within loop IV of the capsid variant. […] In the first maturation approach, sets of three contiguous amino acids were randomized across the mutagenesis region in the TTM-001 and TTM-002 sequences, which spanned from position 450 to position 466, numbered according to SEQ ID NO: 981 and 982. In the second maturation approach, mutagenic primers were used to introduce point mutations at a low frequency, scattered across the mutagenesis region in the TTM-001 and TTM-002 sequences ranging from position 449 to position 466, numbered according to SEQ ID NO: 981 and 982. AAV capsid variants arising from each maturation approach for TTM-001 were pooled together and AAV capsid variants arising from each maturation approach for TTM-002 were also pooled together, for subsequent testing and characterization in mice.
The library of pooled matured AAV capsid variants generated from TTM-001 or library of pooled matured AAV capsid variants generated from the TTM-002 matured AAV capsid variant each were intravenously injected into the tail vein of three female CD-1 Outbred mice (Charles River) at a dose of 1.0×10^12 VG/dose. After 14-days in life, the brains of the mice were isolated and RNA was extracted. Following RNA recovery and RT-PCR amplification, a systematic NGS enrichment analysis was performed to calculate the fold enrichment ratio relative to the corresponding TTM-001 or TTM-002 control, and the peptides comprised within the variants were identified. The data for the TTM-001 matured capsid variants is provided in Table 13 and the data for the TTM-002 matured capsid variants is provided in Table 14.

[2] = tested on: brains, heart, liver, muscle, and DRG of the NHPs; test: Maturation of TTM-001 and TTM-002 capsids, NGS enrichment in NHP tissues; type: in vivo; settings: relative to AAV9 control
Procedure, shortened: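 Variants carry mutations within and flanking the loop IV peptide insert: positions 450–466 were triplet-randomized, while positions 449–466 received low-frequency point mutations. The combined pool went into two NHPs, and each peptide was scored by NGS enrichment ratio against AAV9.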

brain [3] = test: Matured TTM-001 and TTM-002 variants, NGS enrichment in mouse brain; type: in vivo, mice; settings: mouse brain, relative to AAV9 control
[4] = NGS fold-enrichment, NHP liver DNA
[5] = NGS fold-enrichment, NHP liver RNA

| Sequence | Fold enrichment over TTM-002 (brain [1]) | other results |
| --- | --- | --- |
| KFEQGHDSPHKSGQNQQT | 2.22 |  |
| KMEVGHDSPHKSGQNQQT | 2.11 |  |
| KANNGQDSPHKSGQNQQT | 2.67 |  |
| KTINGHDSPHLLWQNQQT | 2.12 |  |
| KIEGGHDSPHKSGQNQQT | 2.00 |  |
| KAEVGHDSPHKSGQNQQT | 2.15 |  |
| KCEWGHDSPHKSGQNQQT | 2.68 |  |
| KTANEHDSPHKSGQNQQT | 2.05 |  |
| KTINGHYSPHLFGQNQQT | 2.02 |  |
| KVEYGHDSPHKSGQNQQT (peptide inserted in AAV capsid) | 2.17 |  |
| KIEMGHDSPHKSGQNQQT | 2.05 |  |
| KADMGHDSPHKSGQNQQT | 2.48 |  |
| KHDWGHDSPHKSGQNQQT | 2.00 |  |
| KTINGHDSPHLCGQNQQT | 2.59 |  |
| KAEIGHDSPHKSGQNQQT | 2.17 | Fold Enrichment relative to AAV9, Brain (NHP) ([2]; NGS fold-enrichment of matured AAV capsid variants, RNA): 63.249 fold; Fold Enrichment relative to AAV9, DRG (NHP) [2]: 0.000 fold; Fold Enrichment relative to AAV9, Heart (NHP) [2]: 0.000 fold; Fold Enrichment relative to AAV9, Liver DNA (NHP) ([2]; NHP liver, DNA): 0.024 fold; Fold Enrichment relative to AAV9, Liver RNA (NHP) ([2]; NHP liver, RNA): 0.060 fold; Fold Enrichment relative to AAV9, Muscle (NHP) [2]: 0.000 fold; Fold Enrichment relative to AAV9, Brain (Mouse) (brain [3]): 27.173 fold |
| KMDAGHDSPHKSGQNQQT | 2.15 |  |
| KTAKDHDSPHKSGQNQQT | 2.11 |  |
| KLEWGHDSPHKSGQNQQT | 2.14 |  |
| KTGNGHDSPHKSGQYQQT | 2.03 |  |
| KTINGHSSPHYFGQNQQT | 2.05 |  |
| KTINGHLSPHYYGQNQQT | 2.13 |  |
| KMEFGHDSPHKSGQNQQT | 2.21 |  |
| KTIKDNDSPHKSGQNQQT | 2.27 |  |
| KIENGHDSPHKSGQNQQT | 2.19 |  |
| KAEQGHDSPHKSGQNQQT | 2.14 |  |
| KMELGHDSPHKSGQNQQT | 2.13 |  |

| Sequence | Fold enrichment over TTM-002 (brain [1]) | other results |
| --- | --- | --- |
| KMEYGHDSPHKSGQNQQT | 2.71 |  |
| KDIMGHDSPHKSGQNQQT | 2.23 |  |
| KTINGHDSPHKSAQNQWT | 2.07 |  |
| KTINGHDSPHKSRQNDQT | 2.01 |  |
| KIETGHDSPHKSGQNQQT | 2.38 |  |
| KADYGHDSPHKSGQNQQT | 2.40 |  |
| KIPEGHDSPHKSGQNQQT | 2.54 |  |
| KTINGHDSPHKRGQHRQT | 4.20 |  |
| KTINGHDSPHINGQKQQT (KTINGHDSPHTNGQKQQT) | 2.38 |  |
| KTINGHESPHKSAQNHQT | 2.07 |  |
| KTINGHDSPHWLLQNQQT | 2.37 |  |
| KMEMGHDSPHKSGQNQQT | 2.16 |  |
| KAEWGHDSPHKSGQNQQT | 2.69 |  |
| KMESGHDSPHKSGQNQQT | 2.18 |  |
| KISNGHDSPHKSAQNQQT | 2.03 |  |
| KADQGHDSPHKSGQNQQT | 2.07 |  |
| KCEYGHDSPHKSGQNQQT | 2.36 |  |
| KCEIGHDSPHKSGQNQQT | 2.10 |  |
| KIEYGHDSPHKSGQNQQT | 2.41 |  |
| KIINGHDSPHKSGLTQQT | 2.17 |  |
| KVEWGHDSPHKSGQNQQT | 2.15 |  |
| KLPEGHDSPHKSGQNQQT | 2.19 |  |
| KTPWEHDSPHKSGQNQQT | 2.05 |  |
| KNMNGHDSPHKSGQNTHS | 2.06 |  |
| KTINGHDSPHKSGRRRQT | 2.04 |  |
| KTINGHLSPHYFGQNQQT | 2.41 |  |

| Sequence | Fold enrichment over TTM-002 (brain [1]) | other results |
| --- | --- | --- |
| KTSNGDDSPHKSGRNQQT | 2.17 |  |
| KATNGHDSPHKSGLNQQT | 2.10 |  |
| KTINGNYSPHKIGQNQQT | 2.02 |  |
| KTINGHPSPHYLGQNQQT | 2.14 |  |
| KIESGHDSPHKSGQNQQT | 2.11 |  |
| KMEIGHDSPHKSGQNQQT | 2.34 |  |
| KMDGGHDSPHKSGQNQQT | 2.09 |  |
| KMPEGHDSPHKSGQNQQT | 3.18 |  |
| KQQQGHDSPHKSGQNQQT | 2.01 |  |
| KADWGHDSPHKSGQNQQT | 2.32 |  |
| KTINGHDSPHVIDQNQQT (KTINGHDSPHVTDQNQQT) | 5.20 |  |
| KMEWGHDSPHKSGQNQQT | 2.38 |  |
| KMEGGHDSPHKSGQNQQT | 2.72 |  |
| KTPQDHDSPHKSGQNQQT | 2.00 |  |
| KTINRQRSPHKSGQNQQT | 2.11 |  |
| KMETGHDSPHKSGQNQQT | 2.12 |  |
| KLEYGHDSPHKSGQNQQT | 2.33 |  |
| KMEAGHDSPHKSGQNQQT | 2.12 |  |
| KIEVGHDSPHKSGQNQQT | 2.16 |  |
| KIEIGHDSPHKSGQNQQT | 2.30 |  |
| KRINGHDSPHKSGQKQQN | 2.34 |  |
| KQEVGHDSPHKSGQNQQT | 2.07 |  |
| KTINGHESPHKSGQNIQP |  | Fold Enrichment relative to AAV9, Brain (NHP) ([2]; NGS fold-enrichment of RNA): 253.840 fold; Fold Enrichment relative to AAV9, DRG (NHP) ([2]; NGS fold-enrichment): 0.000 fold; Fold Enrichment relative to AAV9, Heart (NHP) ([2]; NGS fold-enrichment): 0.000 fold; Fold Enrichment relative to AAV9, Liver DNA (NHP) [2, 4]: 0.000 fold; Fold Enrichment relative to AAV9, Liver RNA (NHP) [2, 5]: 0.000 fold; Fold Enrichment relative to AAV9, Muscle (NHP) ([2]; NGS fold-enrichment): 0.000 fold; Fold Enrichment relative to AAV9, Brain (Mouse) (brain [3]; NGS fold-enrichment): 14.042 fold |
| KAISGHDSPHKSGLNQQT |  | Fold Enrichment relative to AAV9, Brain (NHP) ([2]; NGS fold-enrichment of RNA): 78.846 fold; Fold Enrichment relative to AAV9, DRG (NHP) ([2]; NGS fold-enrichment): 0.000 fold; Fold Enrichment relative to AAV9, Heart (NHP) ([2]; NGS fold-enrichment): 0.079 fold; Fold Enrichment relative to AAV9, Liver DNA (NHP) [2, 4]: 0.015 fold; Fold Enrichment relative to AAV9, Liver RNA (NHP) [2, 5]: 0.000 fold; Fold Enrichment relative to AAV9, Muscle (NHP) ([2]; NGS fold-enrichment): 0.000 fold; Fold Enrichment relative to AAV9, Brain (Mouse) (brain [3]; NGS fold-enrichment): 11.045 fold |
